Results as given in ChEMBL document CHEMBL3826926, “Kinetic and structural insights into the binding of histone deacetylase 1 and 2 (HDAC1, 2) inhibitors” (Bioorg Med Chem, 2016).

Tests used:
Histone deacetylase 3 [1] = biological target: T1, Histone deacetylase 3 (Homo sapiens, UniProt O15379)
Description: Inhibition full length human recombinant HDAC3 expressed in baculovirus using carboxyfluorescein (FAM)-labeled acetylated/ trifluoroacetylated peptide as substrate after 60 mins by fluorescence assay

Histone deacetylase 2 [2] = biological target: T2, Histone deacetylase 2 (Homo sapiens, UniProt Q92769); experiment: biochemical; parameters: species or system Sf9
Description: Inhibition full length human recombinant HDAC2 expressed in baculovirus coexpressed in fall armyworm Sf9 cells using carboxyfluorescein (FAM)-labeled acetylated/ trifluoroacetylated peptide as substrate after 60 mins by fluorescence assay

Histone deacetylase 1 [3] = biological target: T3, Histone deacetylase 1 (Homo sapiens, UniProt Q13547); experiment: biochemical
T3 sequence (Q13547 whole entry): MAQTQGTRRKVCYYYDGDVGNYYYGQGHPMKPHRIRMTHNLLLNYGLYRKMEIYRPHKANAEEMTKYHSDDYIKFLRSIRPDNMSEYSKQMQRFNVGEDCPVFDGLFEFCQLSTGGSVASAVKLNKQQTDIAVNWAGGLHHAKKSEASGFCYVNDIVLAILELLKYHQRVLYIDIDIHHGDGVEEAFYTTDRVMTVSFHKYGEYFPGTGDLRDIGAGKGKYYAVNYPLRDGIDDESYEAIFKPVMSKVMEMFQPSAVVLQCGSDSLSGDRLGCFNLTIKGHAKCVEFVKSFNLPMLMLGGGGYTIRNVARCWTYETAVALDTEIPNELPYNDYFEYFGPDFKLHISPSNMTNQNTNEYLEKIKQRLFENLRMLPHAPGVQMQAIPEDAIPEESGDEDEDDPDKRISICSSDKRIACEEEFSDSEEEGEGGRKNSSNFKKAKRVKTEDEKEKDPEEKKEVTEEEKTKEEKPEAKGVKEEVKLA
Description: Inhibition of C-terminal His-tagged and C-terminal FLAG-tagged full length human recombinant HDAC1 expressed in baculovirus coexpressed in fall armyworm Sf9 cells using carboxyfluorescein (FAM)-labeled acetylated/ trifluoroacetylated peptide as substrate after 60 mins by fluorescence assay

[4] = Stability in mouse plasma assessed as compound remaining at 5 uM after 5 hrs by UPLC-MS analysis; type: ADME, cell-free; conditions: read-out: Stability
Histone deacetylase 3 [5] = biological target: T1, Histone deacetylase 3; remark: listed apart in the source
Description: Inhibition of full length human recombinant HDAC3 expressed in baculovirus using carboxyfluorescein (FAM)-labeled acetylated/ trifluoroacetylated peptide as substrate assessed as residence time by fluorescence assay

Histone deacetylase 1 [6] = biological target: T3, Histone deacetylase 1; conditions: Sf9
Description: Inhibition of C-terminal His-tagged and C-terminal FLAG-tagged full length human recombinant HDAC1 expressed in baculovirus coexpressed in fall armyworm Sf9 cells using carboxyfluorescein (FAM)-labeled acetylated/ trifluoroacetylated peptide as substrate assessed as residence time by fluorescence assay

Histone deacetylase 2 [7] = biological target: T2, Histone deacetylase 2; conditions: Sf9
Description: Inhibition of full length human recombinant HDAC2 expressed in baculovirus coexpressed in fall armyworm Sf9 cells using carboxyfluorescein (FAM)-labeled acetylated/ trifluoroacetylated peptide as substrate assessed as residence time by fluorescence assay

Histone deacetylase 4 = Histone deacetylase 4 (Homo sapiens, UniProt P56524); experiment: Inhibition of N-terminal GST-tagged and C-terminal His-tagged human recombinant HDAC4 (627 to 1084 residues ) expressed in baculovirus coexpressed in fall armyworm Sf9 cells using carboxyfluorescein (FAM)-labeled acetylated/ trifluoroacetylated peptide as substrate after 60 mins by fluorescence assay
Chain of Histone deacetylase 4 (P56524 whole entry, the tested form may be a part): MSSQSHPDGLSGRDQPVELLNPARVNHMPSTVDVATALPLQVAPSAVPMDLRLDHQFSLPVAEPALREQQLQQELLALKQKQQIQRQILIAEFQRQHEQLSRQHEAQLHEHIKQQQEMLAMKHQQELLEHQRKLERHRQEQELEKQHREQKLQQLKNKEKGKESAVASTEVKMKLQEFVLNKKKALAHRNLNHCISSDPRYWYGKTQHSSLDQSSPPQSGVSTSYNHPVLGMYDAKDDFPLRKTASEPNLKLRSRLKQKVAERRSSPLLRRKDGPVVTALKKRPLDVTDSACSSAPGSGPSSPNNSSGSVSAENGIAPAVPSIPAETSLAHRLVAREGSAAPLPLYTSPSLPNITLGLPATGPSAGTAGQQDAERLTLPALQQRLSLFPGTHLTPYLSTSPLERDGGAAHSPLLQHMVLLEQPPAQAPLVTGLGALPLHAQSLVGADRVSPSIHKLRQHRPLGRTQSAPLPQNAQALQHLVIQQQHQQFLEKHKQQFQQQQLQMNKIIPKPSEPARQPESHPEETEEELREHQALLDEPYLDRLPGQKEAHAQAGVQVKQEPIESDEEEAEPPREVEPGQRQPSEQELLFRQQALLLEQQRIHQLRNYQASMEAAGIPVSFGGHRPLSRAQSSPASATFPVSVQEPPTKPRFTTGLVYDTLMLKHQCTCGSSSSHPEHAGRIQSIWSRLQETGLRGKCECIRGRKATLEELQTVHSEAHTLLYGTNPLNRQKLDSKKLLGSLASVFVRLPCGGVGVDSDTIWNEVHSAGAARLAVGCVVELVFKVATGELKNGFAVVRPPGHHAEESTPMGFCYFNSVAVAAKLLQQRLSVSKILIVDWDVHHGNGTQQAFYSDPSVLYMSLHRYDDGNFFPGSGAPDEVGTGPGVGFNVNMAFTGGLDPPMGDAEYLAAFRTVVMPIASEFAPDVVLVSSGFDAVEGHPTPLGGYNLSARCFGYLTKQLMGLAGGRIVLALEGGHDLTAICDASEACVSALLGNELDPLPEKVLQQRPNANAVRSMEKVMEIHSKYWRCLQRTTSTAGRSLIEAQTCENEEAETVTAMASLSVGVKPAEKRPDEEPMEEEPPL

[8] = Ratio of Cmax in brain to plasma in Sprague-Dawley rat at 1 mg/kg, po; type: ADME, organism-based
Histone deacetylase 5 = Histone deacetylase 5 (Homo sapiens, UniProt Q9UQL6); experiment: Inhibition of N-terminal GST-tagged full length human recombinant HDAC5 expressed in baculovirus coexpressed in fall armyworm Sf9 cells using carboxyfluorescein (FAM)-labeled acetylated/ trifluoroacetylated peptide as substrate after 60 mins by fluorescence assay
Chain of Histone deacetylase 5 (Q9UQL6 whole entry): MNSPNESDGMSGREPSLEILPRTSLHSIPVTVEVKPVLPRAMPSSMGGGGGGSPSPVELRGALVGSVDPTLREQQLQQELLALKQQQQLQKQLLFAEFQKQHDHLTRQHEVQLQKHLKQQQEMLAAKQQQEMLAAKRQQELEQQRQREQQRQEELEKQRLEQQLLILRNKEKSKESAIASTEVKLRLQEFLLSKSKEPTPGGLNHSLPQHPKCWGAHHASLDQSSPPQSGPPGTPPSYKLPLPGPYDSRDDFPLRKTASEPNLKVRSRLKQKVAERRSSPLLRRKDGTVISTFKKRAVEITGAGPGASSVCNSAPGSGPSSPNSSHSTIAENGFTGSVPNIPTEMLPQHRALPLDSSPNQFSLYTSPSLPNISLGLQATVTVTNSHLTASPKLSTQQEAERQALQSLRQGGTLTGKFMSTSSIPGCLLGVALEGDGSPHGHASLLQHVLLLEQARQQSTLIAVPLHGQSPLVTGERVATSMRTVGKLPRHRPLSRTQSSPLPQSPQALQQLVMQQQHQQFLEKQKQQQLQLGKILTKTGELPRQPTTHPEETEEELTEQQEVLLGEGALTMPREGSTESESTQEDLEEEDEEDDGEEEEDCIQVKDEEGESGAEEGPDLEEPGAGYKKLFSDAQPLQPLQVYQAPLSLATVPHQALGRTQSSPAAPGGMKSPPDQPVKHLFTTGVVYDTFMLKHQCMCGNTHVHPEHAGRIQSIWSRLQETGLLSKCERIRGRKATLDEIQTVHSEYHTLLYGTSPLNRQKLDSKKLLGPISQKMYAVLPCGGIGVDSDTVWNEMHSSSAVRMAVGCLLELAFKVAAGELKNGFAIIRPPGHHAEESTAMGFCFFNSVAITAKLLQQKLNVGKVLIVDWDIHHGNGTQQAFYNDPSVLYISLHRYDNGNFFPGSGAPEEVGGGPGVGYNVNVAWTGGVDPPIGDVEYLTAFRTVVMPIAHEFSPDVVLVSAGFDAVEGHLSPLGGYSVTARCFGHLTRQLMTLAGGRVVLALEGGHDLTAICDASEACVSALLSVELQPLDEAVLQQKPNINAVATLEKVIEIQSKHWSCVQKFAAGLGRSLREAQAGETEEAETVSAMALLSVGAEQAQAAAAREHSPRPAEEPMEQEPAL

[9] = AUC in Sprague-Dawley rat plasma at 1 mg/kg, po; type: ADME, organism-based
Histone deacetylase 8 = biological target: T4, Histone deacetylase 8 (Homo sapiens, UniProt Q9BY41); experiment: Inhibition of C-terminal His-tagged full length human recombinant HDAC8 expressed in baculovirus coexpressed in fall armyworm Sf9 cells using carboxyfluorescein (FAM)-labeled acetylated/ trifluoroacetylated peptide as substrate after 60 mins by fluorescence assay
T4 sequence (Q9BY41 whole entry): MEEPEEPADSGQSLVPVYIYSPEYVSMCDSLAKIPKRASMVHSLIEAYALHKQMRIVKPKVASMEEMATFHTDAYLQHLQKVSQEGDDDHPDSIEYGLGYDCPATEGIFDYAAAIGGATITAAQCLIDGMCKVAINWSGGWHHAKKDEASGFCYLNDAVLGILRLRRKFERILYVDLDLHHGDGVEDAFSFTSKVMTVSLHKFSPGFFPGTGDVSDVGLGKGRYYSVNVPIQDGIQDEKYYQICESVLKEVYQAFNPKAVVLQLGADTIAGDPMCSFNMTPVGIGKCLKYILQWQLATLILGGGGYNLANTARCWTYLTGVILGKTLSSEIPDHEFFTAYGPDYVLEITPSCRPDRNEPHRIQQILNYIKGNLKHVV

[10] = Half life in Sprague-Dawley rat brain at 1 mg/kg, po; type: ADME, organism-based
Histone deacetylase 7 = biological target: T5, Histone deacetylase 7 (Homo sapiens, UniProt Q8WUI4); experiment: Inhibition of N-terminal GST-tagged human recombinant HDAC7 (518 to end residues) expressed in baculovirus coexpressed in fall armyworm Sf9 cells using carboxyfluorescein (FAM)-labeled acetylated/ trifluoroacetylated peptide as substrate after 60 mins by fluorescence assay
T5 sequence (Q8WUI4 whole entry): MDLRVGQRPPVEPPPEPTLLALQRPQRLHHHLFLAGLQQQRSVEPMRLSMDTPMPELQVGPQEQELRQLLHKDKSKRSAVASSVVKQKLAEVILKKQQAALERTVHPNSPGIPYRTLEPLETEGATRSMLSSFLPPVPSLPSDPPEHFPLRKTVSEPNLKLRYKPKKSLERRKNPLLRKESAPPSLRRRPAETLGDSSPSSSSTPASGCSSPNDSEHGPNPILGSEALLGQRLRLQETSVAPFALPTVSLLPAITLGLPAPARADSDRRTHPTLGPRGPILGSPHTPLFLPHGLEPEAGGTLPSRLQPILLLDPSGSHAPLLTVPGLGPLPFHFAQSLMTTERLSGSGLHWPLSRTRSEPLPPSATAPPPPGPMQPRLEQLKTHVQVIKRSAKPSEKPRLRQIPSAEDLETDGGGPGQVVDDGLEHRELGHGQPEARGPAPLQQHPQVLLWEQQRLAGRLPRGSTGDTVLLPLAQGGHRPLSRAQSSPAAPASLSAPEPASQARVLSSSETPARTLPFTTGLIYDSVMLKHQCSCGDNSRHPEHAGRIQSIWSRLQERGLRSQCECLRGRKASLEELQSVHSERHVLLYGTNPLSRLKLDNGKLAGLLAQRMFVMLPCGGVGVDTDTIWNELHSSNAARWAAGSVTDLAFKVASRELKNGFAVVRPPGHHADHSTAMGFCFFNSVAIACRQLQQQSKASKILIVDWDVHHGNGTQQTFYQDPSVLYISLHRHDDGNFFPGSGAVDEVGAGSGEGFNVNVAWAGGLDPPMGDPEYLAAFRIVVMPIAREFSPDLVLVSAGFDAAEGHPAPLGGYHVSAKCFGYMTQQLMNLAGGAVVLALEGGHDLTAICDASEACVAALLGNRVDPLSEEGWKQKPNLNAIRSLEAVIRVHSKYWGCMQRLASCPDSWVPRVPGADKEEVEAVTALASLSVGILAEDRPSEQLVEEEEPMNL

[11] = Ratio of AUC in brain to plasma in Sprague-Dawley rat at 1 mg/kg, po; type: ADME, organism-based; conditions: read-out: Ratio AUC
Mus musculus [12] = experiment: Binding affinity to mouse brain HDAC2 at 10 mg/kg, ip; type: functional
[13] = biological target: T6, Protein deacetylase HDAC6 (Homo sapiens, UniProt Q9UBN7); experiment: Inhibition of human recombinant HDAC6 expressed in baculovirus coexpressed in fall armyworm Sf9 cells using carboxyfluorescein (FAM)-labeled acetylated/ trifluoroacetylated peptide as substrate after 60 mins by fluorescence assay
T6 sequence (Q9UBN7 whole entry): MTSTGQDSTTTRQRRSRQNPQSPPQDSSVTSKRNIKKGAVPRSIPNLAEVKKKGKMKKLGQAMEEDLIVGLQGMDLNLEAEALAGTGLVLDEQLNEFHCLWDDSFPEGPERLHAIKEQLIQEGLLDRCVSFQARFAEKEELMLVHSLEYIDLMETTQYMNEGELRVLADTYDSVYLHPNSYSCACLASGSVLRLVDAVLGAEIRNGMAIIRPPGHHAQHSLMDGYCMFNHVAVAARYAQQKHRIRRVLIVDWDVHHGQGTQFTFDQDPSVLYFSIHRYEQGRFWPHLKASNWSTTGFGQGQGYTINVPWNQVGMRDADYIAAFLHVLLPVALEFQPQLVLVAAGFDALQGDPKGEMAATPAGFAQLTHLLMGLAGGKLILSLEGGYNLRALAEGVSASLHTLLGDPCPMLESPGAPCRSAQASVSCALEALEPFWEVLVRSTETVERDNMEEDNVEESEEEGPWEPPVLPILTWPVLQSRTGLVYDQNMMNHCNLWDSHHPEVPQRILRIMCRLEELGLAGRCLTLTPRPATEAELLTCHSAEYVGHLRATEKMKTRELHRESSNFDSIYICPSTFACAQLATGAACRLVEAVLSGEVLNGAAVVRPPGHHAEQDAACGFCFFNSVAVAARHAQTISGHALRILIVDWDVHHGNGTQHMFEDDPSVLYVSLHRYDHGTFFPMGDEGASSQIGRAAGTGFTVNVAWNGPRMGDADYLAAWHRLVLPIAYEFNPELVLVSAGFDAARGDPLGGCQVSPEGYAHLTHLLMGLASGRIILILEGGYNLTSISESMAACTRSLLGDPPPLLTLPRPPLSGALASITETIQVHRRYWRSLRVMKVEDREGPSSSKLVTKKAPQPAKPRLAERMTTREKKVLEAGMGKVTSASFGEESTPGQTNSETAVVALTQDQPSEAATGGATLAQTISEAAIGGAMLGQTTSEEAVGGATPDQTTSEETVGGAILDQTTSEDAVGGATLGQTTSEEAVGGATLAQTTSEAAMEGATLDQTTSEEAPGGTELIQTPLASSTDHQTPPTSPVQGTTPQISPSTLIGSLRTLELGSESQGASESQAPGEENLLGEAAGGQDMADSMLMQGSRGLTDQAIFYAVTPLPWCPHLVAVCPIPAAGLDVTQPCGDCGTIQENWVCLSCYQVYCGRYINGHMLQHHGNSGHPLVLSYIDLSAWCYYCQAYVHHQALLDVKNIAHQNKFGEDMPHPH

[14] = Oral bioavailability in Sprague-Dawley rat at 1 mg/kg; type: ADME, organism-based; conditions: in vivo
Mus musculus [15] = experiment: Binding affinity to mouse brain HDAC1 at 10 mg/kg, ip; type: functional
[16] = Cmax in Sprague-Dawley rat plasma at 1 mg/kg, po; type: ADME, organism-based; parameters: dose 1 mg/kg, route oral
[17] = AUC in Sprague-Dawley rat brain at 1 mg/kg, po; type: ADME, organism-based
[18] = Half life in Sprague-Dawley rat plasma at 1 mg/kg, po; type: ADME, organism-based
Histone deacetylase 9 = Histone deacetylase 9 (Homo sapiens, UniProt Q9UKV0); experiment: Inhibition of C-terminal His-tagged human recombinant HDAC9 (604 to 1066 residues) expressed in baculovirus coexpressed in fall armyworm Sf9 cells using carboxyfluorescein (FAM)-labeled acetylated/ trifluoroacetylated peptide as substrate after 60 mins by fluorescence assay
Chain of Histone deacetylase 9 (Q9UKV0 whole entry, the tested form may be a part): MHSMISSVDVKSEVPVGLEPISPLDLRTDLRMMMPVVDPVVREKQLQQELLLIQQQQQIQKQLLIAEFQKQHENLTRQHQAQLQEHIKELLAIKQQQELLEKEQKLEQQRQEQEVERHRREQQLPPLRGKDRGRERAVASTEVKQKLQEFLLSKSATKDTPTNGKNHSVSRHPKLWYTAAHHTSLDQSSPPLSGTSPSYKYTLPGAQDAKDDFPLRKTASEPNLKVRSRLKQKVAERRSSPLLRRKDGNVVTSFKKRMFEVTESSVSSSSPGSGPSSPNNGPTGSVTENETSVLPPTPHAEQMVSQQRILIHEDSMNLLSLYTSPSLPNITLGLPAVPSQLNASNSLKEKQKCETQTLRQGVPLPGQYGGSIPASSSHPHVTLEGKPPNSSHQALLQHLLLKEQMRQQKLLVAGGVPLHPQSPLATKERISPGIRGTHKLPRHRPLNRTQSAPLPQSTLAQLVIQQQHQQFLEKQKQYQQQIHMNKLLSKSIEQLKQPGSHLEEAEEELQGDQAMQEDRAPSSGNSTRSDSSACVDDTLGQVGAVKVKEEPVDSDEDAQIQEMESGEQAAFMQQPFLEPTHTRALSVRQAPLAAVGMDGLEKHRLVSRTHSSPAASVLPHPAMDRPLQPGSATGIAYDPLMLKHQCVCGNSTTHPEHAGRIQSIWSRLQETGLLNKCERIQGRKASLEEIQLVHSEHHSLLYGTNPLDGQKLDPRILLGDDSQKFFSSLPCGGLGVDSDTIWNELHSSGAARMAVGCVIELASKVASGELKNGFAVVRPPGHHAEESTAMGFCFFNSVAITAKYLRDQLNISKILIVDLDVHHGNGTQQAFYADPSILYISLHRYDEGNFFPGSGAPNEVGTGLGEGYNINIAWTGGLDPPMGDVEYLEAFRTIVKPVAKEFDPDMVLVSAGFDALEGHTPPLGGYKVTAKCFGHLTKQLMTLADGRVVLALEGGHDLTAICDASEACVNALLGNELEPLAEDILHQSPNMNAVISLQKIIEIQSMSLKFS

[19] = Stability in mouse liver microsomes assessed as compound remaining at 1 uM after 60 mins by UPLC-MS analysis; type: ADME; conditions: read-out: Stability
[20] = Cmax in Sprague-Dawley rat brain at 1 mg/kg, po; type: ADME, organism-based; parameters: dose 1 mg/kg, route oral

T1 sequence (O15379 whole entry): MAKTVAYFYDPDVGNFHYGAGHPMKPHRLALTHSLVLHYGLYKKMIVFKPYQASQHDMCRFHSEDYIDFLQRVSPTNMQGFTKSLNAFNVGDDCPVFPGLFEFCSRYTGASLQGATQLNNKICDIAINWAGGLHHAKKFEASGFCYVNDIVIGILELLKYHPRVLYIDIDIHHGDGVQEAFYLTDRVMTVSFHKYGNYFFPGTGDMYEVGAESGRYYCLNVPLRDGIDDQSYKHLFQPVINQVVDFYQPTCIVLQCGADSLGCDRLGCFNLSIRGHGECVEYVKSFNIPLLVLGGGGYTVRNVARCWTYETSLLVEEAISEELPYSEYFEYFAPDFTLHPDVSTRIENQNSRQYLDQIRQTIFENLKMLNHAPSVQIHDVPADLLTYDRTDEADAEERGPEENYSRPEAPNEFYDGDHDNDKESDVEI
T2 sequence (Q92769 whole entry): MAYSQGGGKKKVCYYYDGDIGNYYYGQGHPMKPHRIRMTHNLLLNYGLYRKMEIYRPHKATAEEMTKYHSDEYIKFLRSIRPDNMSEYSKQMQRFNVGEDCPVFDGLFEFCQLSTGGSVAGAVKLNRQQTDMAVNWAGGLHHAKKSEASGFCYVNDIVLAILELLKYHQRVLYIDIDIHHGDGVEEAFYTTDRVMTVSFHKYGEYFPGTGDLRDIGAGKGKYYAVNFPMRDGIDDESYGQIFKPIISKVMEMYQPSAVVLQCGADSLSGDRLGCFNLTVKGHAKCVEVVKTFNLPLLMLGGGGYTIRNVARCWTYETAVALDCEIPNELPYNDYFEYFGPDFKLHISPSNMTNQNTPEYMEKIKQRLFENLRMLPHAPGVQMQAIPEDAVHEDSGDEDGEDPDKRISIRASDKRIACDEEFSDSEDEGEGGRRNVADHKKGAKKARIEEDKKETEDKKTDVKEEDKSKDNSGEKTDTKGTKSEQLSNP

| SMILES | IC50 (Histone deacetylase 3 [1]) [µM] | IC50 (Histone deacetylase 2 [2]) [µM] | IC50 (Histone deacetylase 1 [3]) [µM] | remaining at 5 h, 5 µM [4] [%] | T1/2 (Histone deacetylase 3 [5]) [min] | T1/2 (Histone deacetylase 1 [6]) [min] | also measured |
| --- | --- | --- | --- | --- | --- | --- | --- |
| Nc1ccc(-c2ccc(F)cc2)cc1NC(=O)C1CCCOC1 (centres undefined) | 19.8 | 4.73 | 1.22 |  |  |  |  |
| Nc1ccc(-c2ccccc2)cc1NC(=O)C1CCOCC1 |  |  |  |  | 3.85 | 0.119 |  |
| Nc1ccc(-c2ccc(F)cc2)cc1NC(=O)[C@@H]1CCCCO1 | 5.95 | 1.45 | 1.43 | 0 |  |  |  |
| Nc1ccc(-c2ccncc2)cc1NC(=O)C1CCOCC1 |  |  |  |  | > 33.3 | 2.35 |  |
| Nc1ccc(-c2ccc(F)cc2)cc1NC(=O)C1Cc2ccccc2CO1 (centres undefined) | 25.9 | 0.119 | 0.045 | 11.1 |  |  |  |
| Nc1ccc(-c2ccc(F)cc2)cc1NC(=O)C1COc2ccccc2C1 (centres undefined) |  |  |  | 100 |  |  | remaining at 1 h, 1 µM [19]: 25% |

The next lines start with results.

| IC50 (Histone deacetylase 3 [1]) [µM] | IC50 (Histone deacetylase 2 [2]) [µM] | IC50 (Histone deacetylase 1 [3]) [µM] | remaining at 5 h, 5 µM [4] [%] | T1/2 (Histone deacetylase 3 [5]) [min] | T1/2 (Histone deacetylase 1 [6]) [min] | SMILES | also measured |
| --- | --- | --- | --- | --- | --- | --- | --- |
| 5.73 | 1.29 | 0.467 | 0 |  |  | Nc1ccc(-c2ccc(F)cc2)cc1NC(=O)[C@H]1CCCCO1 |  |
| 6.26 | 6.56 | 5.59 | 3.7 |  |  | Nc1ccc(-c2ccc(F)cc2)cc1NC(=O)C1CCc2ccccc2O1 (centres undefined) |  |
|  |  |  |  | > 33.3 | 26.7 | Nc1ccc(-c2ccc(C(F)(F)F)cc2)cc1NC(=O)C1CCOCC1 | T1/2 (Histone deacetylase 2 [7]): > 33.3 min |
|  |  |  | 114 | 132 | 3 | Nc1ccc(-c2ccc(F)cc2)cc1NC(=O)[C@@H]1C[C@H]2CC[C@@H](C1)O2 | IC50 (Histone deacetylase 4): > 33.3 µM; Kp [8]: 0.22; IC50 (Histone deacetylase 5): > 33.3 µM; AUC [9]: 10.8 µM·h; IC50 (Histone deacetylase 8): > 33.3 µM; half-life [10]: 146 min; T1/2 (Histone deacetylase 2 [7]): 37 min; IC50 (Histone deacetylase 7): > 33.3 µM; Kp [11]: 0.17; Activity (Mus musculus [12]): 10%; IC50 [13]: > 33.3 µM; bioavailability [14]: 33.4%; Activity (Mus musculus [15]): 42%; Cmax [16]: 3.97 µM; AUC [17]: 1.8 µM·h; half-life [18]: 282 min; IC50 (Histone deacetylase 9): > 33.3 µM; remaining at 1 h, 1 µM [19]: 62%; Cmax [20]: 0.89 µM |
|  |  |  |  | > 33.3 | 9.67 | Nc1ccc(-c2cccc(F)c2)cc1NC(=O)C1CCOCC1 | T1/2 (Histone deacetylase 2 [7]): 12.3 min |
|  |  |  | 94.1 | 217 | 13 | Nc1ccc(-c2ccc(F)cc2)cc1NC(=O)C1C2COCC21 (centres undefined) | T1/2 (Histone deacetylase 2 [7]): 58 min; remaining at 1 h, 1 µM [19]: 60% |
|  |  |  | 93 |  |  | Nc1ccc(-c2ccc(F)cc2)cc1NC(=O)C1CCOCC1 | Activity (Mus musculus [12]): 10%; Activity (Mus musculus [15]): 68%; remaining at 1 h, 1 µM [19]: 54% |
|  |  |  |  | 20.8 | 6.45 | Nc1ccc(-c2cccnc2)cc1NC(=O)C1CCOCC1 |  |
